Values of other authors, collected in patent publication US20130079342A1, “HETEROCYCLIC COMPOUNDS AND THEIR USES” (priority 2011, published 2013).

Columns and labels:
[1] = test system: ovalbumin-induced airway inflammation
p110δ = target: T1, p110δ (Homo sapiens, UniProt O00329)
T1 sequence (O00329 1-1044): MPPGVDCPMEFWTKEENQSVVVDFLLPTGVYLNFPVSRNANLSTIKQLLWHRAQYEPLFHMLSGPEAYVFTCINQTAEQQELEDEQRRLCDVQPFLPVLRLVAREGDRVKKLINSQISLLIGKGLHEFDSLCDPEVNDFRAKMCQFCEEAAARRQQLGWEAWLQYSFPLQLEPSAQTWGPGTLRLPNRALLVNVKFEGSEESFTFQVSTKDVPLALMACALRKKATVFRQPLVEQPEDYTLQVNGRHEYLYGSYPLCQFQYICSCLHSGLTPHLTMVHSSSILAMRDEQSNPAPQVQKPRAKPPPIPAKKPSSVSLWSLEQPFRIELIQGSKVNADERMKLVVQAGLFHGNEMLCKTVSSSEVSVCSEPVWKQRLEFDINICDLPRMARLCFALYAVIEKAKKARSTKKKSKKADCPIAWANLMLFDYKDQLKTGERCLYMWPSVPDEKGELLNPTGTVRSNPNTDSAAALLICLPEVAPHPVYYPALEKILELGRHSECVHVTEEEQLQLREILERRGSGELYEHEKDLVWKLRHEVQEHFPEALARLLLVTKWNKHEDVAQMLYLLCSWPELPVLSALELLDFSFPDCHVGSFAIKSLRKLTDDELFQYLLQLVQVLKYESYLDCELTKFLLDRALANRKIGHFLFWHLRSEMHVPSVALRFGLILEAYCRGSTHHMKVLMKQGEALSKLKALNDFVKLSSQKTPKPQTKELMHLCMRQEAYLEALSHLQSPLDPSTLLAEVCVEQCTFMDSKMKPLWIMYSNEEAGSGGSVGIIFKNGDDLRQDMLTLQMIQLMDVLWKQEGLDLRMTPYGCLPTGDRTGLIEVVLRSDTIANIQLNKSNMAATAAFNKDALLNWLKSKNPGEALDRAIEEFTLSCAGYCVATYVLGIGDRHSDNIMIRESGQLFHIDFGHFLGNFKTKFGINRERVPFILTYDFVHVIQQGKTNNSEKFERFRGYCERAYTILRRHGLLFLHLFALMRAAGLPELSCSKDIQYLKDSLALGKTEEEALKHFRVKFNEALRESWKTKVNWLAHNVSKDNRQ

[2] = test system: systemic lupus erythematosis model; conditions: in vivo
[3] = test system: rheumatoid arthritis model; conditions: in vivo

Row | SMILES | inflammation and disease in a murine model of asthma [1] | activity against any protein kinases tested (protein kinases) | inhibition of p110δ (p110δ) | onset of disease in a model of systemic lupus erythematosis [2] | efficacy in a mouse model of rheumatoid arthritis [3]
1 | Cc1ccccc1-n1c(Cn2cnc3c(N)ncnc32)nc2cccc(C)c2c1=O [IC87114] | significantly ameliorate inflammation and disease | no activity | high nanomolar range (triple digit) |  | 
2 | O=C1NC(=O)/C(=C\c2ccc3nccnc3c2)S1 [AS 605240] |  |  |  | delay onset of disease | efficacious
